Test results taken from a melting point compilation (Tetko et al.).

melting point [°C]	SMILES
-80	C=CC1CC2C=CC1C2 (stereo unspecified)
259	O=C1c2ccccc2C(=O)c2c(O)c(O)cc(O)c21
55	C[Si](C)(C)c1cnc([Si](C)(C)C)s1
148 to 150	O=C(O)C1CC(=O)N(CCc2ccc(Cl)cc2)C1 (stereo unspecified)
110 to 113	CCC(C)NC(=O)C(C(F)(F)F)C(F)(F)F (stereo unspecified)
81 to 83	Cc1ccc(COc2cccc(F)c2C#N)cc1
200	Cc1nc2ccccc2c(C(=O)O)c1O
450	O=c1oc2c(O)c(O)cc3c(=O)oc4c(O)c(O)cc1c4c23
145	COC(=O)c1scc(S(C)(=O)=O)c1N
106 to 107	CC12CCC(/C(=C/N(O)c3ccccc3)C1=O)C2(C)C (stereo unspecified)
129 to 130	O=Cc1cc2cc(Br)ccc2o1
40	CCCCCCCCCCCCCCCCCC(=O)OCCOCCOCCOCCO
104	COc1ccc(C2C3=C(CCCC3)OC3=C2CCCC3)cc1
135	O=C(O)CCc1ccc(Br)cc1
40 to 42	Brc1nc2ccccc2s1
175 to 177	N#Cn1c(N)nc2ccccc21
-1	O=C1CCCCCO1
158 to 159	NC(=S)Nc1ccccc1C(F)(F)F
213 to 215	CSc1nc2cc(N=Cc3ccc4c(c3)OCO4)ccc2[nH]1
41	CN1C(=O)CC[C@H]1c1cccnc1
156	NC(=O)c1cc(F)cc(F)c1
281	CSCCC(N)C(=O)O (stereo unspecified)
30	O=C1CCc2ccccc2CC1
50 to 52	CCOC(=O)c1cnn(-c2ccc(Cl)cc2)c1C(F)(F)F

melting point [°C]	SMILES
96	Clc1ncnc2sc3c(c12)CCCC3
52	CCC(C(=O)O)c1ccc(CC(C)C)cc1 (stereo unspecified)
131 to 136	N#Cc1ccc2cccc(O)c2n1
52.5	c1ccc(CCCCc2ccccc2)cc1
192	CC1(C)OC(=O)C(=NNc2cccc([N+](=O)[O-])c2)C(=O)O1
170 to 172	NS(=O)(=O)c1cc(Cl)cc(Cl)c1
91	COc1cc(C)nc(-n2nc(C)cc2OC)n1
184	O=C(C=Cc1ccc(O)cc1)c1ccccc1
134 to 137	CCOC(=O)c1c(SC)nc2ccc(Cl)cc2c1Cl
233	O=C1NN(c2ccccc2)C(=O)C1c1ccccc1 (stereo unspecified)
210	Cc1cccc2c(C=O)c[nH]c12
-56.1	CCCCC(=O)OC(=O)CCCC
283 to 285	COC(=O)c1c(SC)nc(-c2ccccc2)[nH]c1=O
100	Cc1ccc2c3ccccc3c3ccccc3c2c1
154	O=C(Nc1ccccc1)c1ccccc1[N+](=O)[O-]
189 to 193	CC(C)CCCC(C)C1CCC2C3CC(O)C4=CC(=O)CCC4(C)C3CCC12C (stereo unspecified)
278	Oc1ccnc(O)c1
74	OCCC12CC3CC(CC(C3)C1)C2
172	CC(=O)C1CCC2C3CCC4=CC(=O)CCC4(C)C3C(=O)CC12C (stereo unspecified)
49	c1ccc(O[Si](Oc2ccccc2)(Oc2ccccc2)Oc2ccccc2)cc1
214 to 215	COc1ccc(/C=N/c2ccc(-c3ccc(/N=N/c4ccccc4)cc3)cc2)cc1
194 to 196	FC(F)(F)c1ccc(-n2cc[nH]c2=S)cc1
115 to 117	O=C1C=CC(=O)N1c1cccnc1Cl
22	C#CCCCCCCCCCCCCCCC

melting point [°C]	SMILES
60 to 61	CC(C)C(N)=NO
48	Cc1cc(C)c2c(c1)CC2=O
159 to 160	O=C1OC(c2ccccc2)=NC1=Cc1ccc(-c2ccccc2Br)o1
28.5	CCCCOC(=O)COc1cc(Cl)c(Cl)cc1Cl
99 to 103	CCOC(=O)[C@@H]1CC=CC[C@@H]1N (relative stereo)
177 to 178	O=Cc1ccc2oc(C(=O)c3ccc(Br)cc3)cc2c1
139	O=C(C(=S)Nc1ccc(I)cc1)c1ccccc1
104	c1ccc(-c2ccc3ccccc3c2)cc1
37	OCCCc1ccncc1
37 to 38	Cc1cc(F)ccc1O
52.5	N#Cc1c(F)ccc([N+](=O)[O-])c1F
82 to 83	Cc1ccc(O)c2c1CCC2
148	COc1cc2c(cc1OC)C(c1ccc(C)o1)SC(c1ccc(C)o1)=N2 (stereo unspecified)
166	CC1=N[C@]2(c3ccccc3)Oc3c(c4ccccc4c4ccccc34)O[C@@H]2O1
205	CC12CCC(OC=O)CC1CCC1C2CCC2(C)C1CCC2(O)C#Cc1ccccc1 (stereo unspecified)
46	O=C(c1ccccc1)c1ccccc1Cl
194 to 196	CC(=O)Oc1ccc2c(c1)c(OC(C)=O)c(-c1ccccc1)n2OC(C)=O
29	Oc1cc(F)cc(F)c1F
171	CC1=NN(c2ccccc2)C(=O)C1=Cc1c(O)c2cccc(C)c2[nH]c1=O
126 to 128	NNC(=O)c1ccsc1
224	CCOC(=O)Cn1nc(-c2ccccc2)c2ccccc2c1=O
107 to 108	CCCC1C2C(=O)N(c3ccccc3)C(=O)C2ON1c1ccccc1 (stereo unspecified)
230	C1=C\c2ccc(cc2)-c2ccccc2-c2ccc/1cc2
31	FC(F)(F)c1cc2ccccc2cn1

melting point [°C]	SMILES
80 to 81	Ic1ccc(Cn2cccn2)cc1
110 to 112	COc1ccc(OCC(O)CN)cc1 (stereo unspecified)
161 to 163	NC(=S)c1ccc[nH]1
148	c1cnc2nc[nH]c2c1
43.4	CCN(CC)CCC1(c2ccccc2)C(=O)Oc2ccccc21 (stereo unspecified)
270	O=c1c(Nc2ccccc2)c(Nc2ccccc2)c1=O
175	C=C(CC(=O)O)C(=O)O
165	CC(CCc1ccc(CCC(C)OC(=O)Nc2ccccc2)cc1)OC(=O)Nc1ccccc1 (stereo unspecified)
38	Cc1ccc(C(F)(F)F)cc1N
121	Oc1ccc(C2=Cc3ccccc3C(c3ccccc3)O2)cc1 (stereo unspecified)
120 to 122	CC(C)(C)OC(=O)N1CCN(c2ccccc2N)CC1
130	Cn1nc(-c2ccco2)cc1C(=O)O
-43	CCCCCCCS
138 to 143	Cc1cccc(NC(N)=O)c1
103 to 104	Cn1c(CO)cc2sccc21
110	CC(=O)N1C(=O)[C@@](O)(c2coc3ccccc23)c2ccccc21
224	C=C1CC2C3C=C(C)C4=CC(=O)CCC4(C)C3CCC2(C)C1(OC(C)=O)C(C)=O (stereo unspecified)
118	Cc1cc(Cl)[nH]n1
166	O=Cc1ccc(-c2cccc(C(=O)O)c2)cc1
185	Cc1nnsc1C(=O)O
87	CCNc1nc(NC(C)CC)nc(OC)n1 (stereo unspecified)
195	Cc1cc(NS(=O)(=O)c2ccc(N)cc2)n(-c2ccccc2)n1
16	CCCCCCCCCCCCCCc1ccccc1
69 to 70	COc1ccc(C=CC(=O)c2ccccc2)c(OC)c1

melting point [°C]	SMILES
103	O=C1C2=C(C(=O)c3ccccc31)C1(CC1)C21CC1
96 to 98	CC(=O)CSc1ccc(C)cc1
66	COC(=O)c1ccnnc1
178 to 180	COC(=O)c1ccccc1-n1c(SC)nc2ccccc2c1=O
111 to 115	NNC(=O)C(F)(F)F
214	N#C/C(=N\Nc1cc(Cl)c(Cl)cc1Cl)c1nc2ccccc2s1
117	NNc1cccc2ccccc12
222	CC(C)CCCC(C)C1CCC2C3CC(=O)C4(O)CC(=O)CCC4(C)C3CCC12C (stereo unspecified)
131 to 138	O=C1NC(=O)[C@@H]2CC=CC[C@H]12
113 to 115	Cc1c(C=O)cnn1-c1ccc(F)cc1
26	O=C(Cl)c1cccc2ccccc12
197 to 198	Cc1nn(-c2ccccc2)nc1C(=O)NNC(=N)C(Cl)(Cl)Cl
50	O=C1Cc2ccccc2O1
155	NC(=O)C(CO)NC(=O)OCC1c2ccccc2-c2ccccc21 (stereo unspecified)
126	CC(Oc1c(Cl)cccc1Cl)C1=NCCN1 (stereo unspecified)
57	Cc1ccc(Br)c(O)c1C(=O)O
41.5	CCCCCOc1ccc(/N=N/c2ccc(CCCC)cc2)cc1Cl
204 to 208	CC(=O)Nc1nccs1
201	Cc1nnc2sc(SCC(=O)O)nn2c1=O
120 to 124	O=C1CCCC(Cl)(Cl)C1(O)O
107 to 109	COc1ccc(C(=O)c2ccc(-c3ccccc3)cc2)cc1OC
47	O=c1occc2ccccc12

SMILES	melting point [°C]
O=C(CCl)c1ccc(F)cc1	48
O=[N+]([O-])c1cc(Cl)c(Cl)cc1Cl	57.5
Cc1ccccc1NC(N)=S	162
CC1CC=CC2C3OC3(C)C(C)C3C(Cc4ccccc4)NC(=O)C23OC(=O)OC=CC(C)(O)C1=O (stereo unspecified)	206
C=C1CC(=O)O1	-6.5
CC(=NNc1nc(C)cc(C)n1)c1ccccc1C	176
CC(C)(O)C(Cl)(Cl)Cl	97
Nc1ccc(Cc2ccc(N)c(Cl)c2)cc1Cl	110
CCNc1nc(NC(C)C)nc(SC)n1	88
CNC(=O)Oc1cc(C)c(C)c(C)c1	110
COC(=O)c1ccccc1S(=O)(=O)NC(=O)Nc1nc(C)nc(OC)n1	162
BrCc1ccc2nsnc2c1	91
Cc1cccc(C(=O)Cl)c1	-23
